Patent publication US20260265055A1, “Sulfine-Based Compounds for Generating Hydrogen Persulfide” (Brown University, priority 2023, published 2026)

Experiments:
[1] = SSP4 fluorescence assay to determine generation of H2S2 in buffer
From the text: To further evaluate the specificity of TTS in converting H2S to H2S2, SSP4 was used to monitor the formation of H2S2 in this reaction and the results were compared with a series of controls. Details of the SSP4 experiments are provided later herein. SSP4 is a well-established fluorescent sensor for sulfane sulfurs including H2S2. See Shieh, M. et al., Shining a light on SSP4: a comprehensive analysis and biological applications for the detection of sulfane sulfurs. Redox Biol. 2022, 56, 102433. […] Without wishing to be bound by scientific theory, it is believed that thiols would compete with SSP4 to react with H2S2, thereby causing decreased signals.
SSP4 was dissolved in DMSO to obtain a 200 μM stock solution. CTAB was dissolved in ethanol to yield a 2 mM stock solution. TTS and TT were dissolved in DMSO to make 1 mM stock solutions. Na2S, Na2S2, and L-cysteine were prepared in MilliQ H2O to obtain stock solutions at 2 mM, 1 mM, and 4 mM, respectively. 50 mM PBS buffer was added to individual wells of a black polystyrene, flat-bottomed clear 96-well plate, followed by TTS (25 μM) or TT (25 μM), and Na2S (50 μM), cysteine (100 μM), or Na2S2 (25 μM). For the interference assay, TTS or TT (25 μM) were added to wells with or without Na2S (50 μM). Samples were mixed by pipetting up and down and incubated in the dark at room temperature (rt) for 30 min. Next, CTAB (50 μM) was added to all wells followed by SSP4 (5 μM), and samples were mixed by pipetting up and down. The final volume was 200 μL in each well. Samples were then incubated in the dark at room temperature for another 30 min before being measured on a Molecular Devices SpectraMax iD3 Multi-Mode Microplate Reader (emission 525 nm; excitation 485 nm; integration time […], low PMT sensitivity, attenuation 1, read height 1.00 mm).

[2] = Monitoring H2S2 formation from the TTS-TAGDD hybrid compound 3 (SSP4, 12 h); conditions: 25 μM compound only, over 12 hours
Description: Monitoring H2S2 formation from the TTS-TAGDD hybrid compound 3: TTS and 3 were prepared as 1 mM solutions in DMSO. L-cysteine and Na2S2 were prepared at 4 mM and 1 mM in MilliQ H2O, respectively. SSP4 was dissolved in DMSO to obtain a 200 μM stock solution. CTAB was dissolved in ethanol to yield a 2 mM stock solution. 50 mM PBS buffer (pH 7.4) was added to individual wells of a black polystyrene, flat-bottomed clear 96-well plate, followed by TTS (25 μM) or 3 (25 μM) then cysteine (100 μM) or Na2S2 (25 μM). Samples were mixed by pipetting up and down and incubated in the dark at room temperature (rt) for 30 min. Next, CTAB (50 μM) was added to all wells followed by SSP4 (5 μM), and samples were mixed by pipetting up and down. Samples were then incubated in the dark at room temperature for another 30 min before being measured on a Molecular Devices SpectraMax iD3 Multi-Mode Microplate Reader (fluorescence mode; kinetics measurement type; emission 535 nm; excitation 485 nm; integration time […], low PMT sensitivity, attenuation 1, read height 1.00 mm; total run time: 12 hours; 25 cycles; interval: 0.5 hours). Data was graphed as a time dependent fluorescence response, with F0 as the SSP4 only condition. The fluorescence of Na2S2 over time was not represented in the line graph presented due to the compound's known instability. Data obtained from the 12 h time point including from Na2S2 was also represented in a bar graph for greater clarity. Results were expressed as mean±SEM (n=3).

[3] = Measurement of H2S2 formation from JK-1 with TTS (SSP4); conditions: TTS 200 μM + JK-1 400 μM, 30 min incubation, pH 7.4
Description: Measurement of H2S2 formation from JK-1 with TTS: JK-1 (1.1 mg) was added to a 1 dram vial and 4.484 mL of 50 mM PBS (pH 6.0) was then added to obtain a 1 mM stock solution with no headspace in the vial. The solution was vortexed to mix and then incubated in the dark at rt for 20 min. Based on the H2S-release profile reported under the same conditions (see Kang, J. et al., J. Am. Chem. Soc. 2016, 138, 6336), 400 μM of H2S (40% of 1 mM) should be released. The pH of the solution was then adjusted to 7.4 by adding 16 μL 2N NaOH. The same volume of 50 mM PBS (pH 6.0) buffer was added to an empty 1 dram vial and 16 μL of 2N NaOH was added to adjust the pH of the buffer similarly for the controls. After incubation, 500 μL of the pH-adjusted PBS was aliquoted to nine 1.5 mL Eppendorf tubes while the same volume of JK-1 solution was aliquoted into six 1.5 mL Eppendorf tubes. […] 200 μL of each tube was then added to separate wells on a 96-well black flat clear-bottomed plate before being measured on a Molecular Devices SpectraMax iD3 Multi-Mode Microplate Reader (emission 535 nm; excitation 485 nm; integration time […], low PMT sensitivity, attenuation 1, read height 3.00 mm).
JK-1 in buffer was mixed with TTS to generate H2S2. After a 30 min incubation, the formation of H2S2 was measured by SSP4.

With `COC(=O)c1ccc(=S=O)sc1` [TTS, 2H-thiopyran-2-thione sulfine] the “SSP4 fluorescence in interference experiments with thiols” value ([1]; 25 μM TTS + 50 μM Na2S + 200 μM Cys or 1 mM GSH) was “decreased but still significant fluorescence”, the “SSP4 fluorescence response (H2S2 formation)” value ([1]; 25 μM compound + 50 μM Na2S (H2S), PBS, SSP4 5 μM) was “significant fluorescence response” and the “SSP4 fluorescence response (sulfane sulfur formation)” value ([1]; 25 μM compound + 100 μM Cys, SSP4 5 μM) was “No fluorescence”. The “SSP4 fluorescence response (H2S2 formation)” value ([1]; 25 μM compound only, SSP4 5 μM) was “No fluorescence”, the SSP4 fluorescence [2] was “did not give any notable fluorescence” and the “SSP4 fluorescence (H2S2 formation)” value [3] was “strong fluorescence”.
